Experimental findings from patent US20210285933A1, “HIGH THROUGHPUT DRUG SCREENING OF CANCER STEM CELLS” (UNIVERSITY OF WASHINGTON, priority 2018, published 2021) are described below.

Entries after “also recorded” stand apart in the source; their conditions may differ. Residues, ends and D or L forms follow the SMILES beside them. *: point of attachment. Cbz = O=C(OCc1ccccc1)*

Assay [1] relates to leukemia stem cells (LSCs) CD34+CD38low or negCD123+ from AML patient samples. Nature of the assay: High throughput functional drug screen (72-hour exposure, CellTiter Glo viability) on FACS sorted LSCs. It is filed as cell-based, human. The arrangement: AUC Stem Mean: unit not given here. The note with it: for Effectiveness vs. LSCs (AUCstem mean < mitomycin C AUCblast mean, p<0.1): aggregate viability data of patient samples, in vitro 72 h; for AUC Stem Mean: mean area under dose response curve across patient samples, 72-hour exposure, 8 concentrations; for LSC drug response in dose response curves: FIG. 1C. As for the experimental part:
Isolation of blasts and FACS isolation of LSCs: CD34+ blasts were enriched to >90% using immunomagnetic beads (QuadroMACS). Fluorescence activated cell sorting was performed in a biosafety cabinet enclosed FACS-Aria II (Becton-Dickinson; San Jose, Calif.) housed in the University of Washington Core Cell Analysis Facility where voltage was standardized and calibration was performed daily. Mononuclear cells were stained with allophycocyanin H7 (APC-H7) conjugated anti-human CD45, allophycocyanin (APC) conjugated anti-human CD34, phycoerythrin-Cy7 (PE-Cy7) conjugated anti-human CD38 and phycoerythrin (PE) conjugated anti-human CD123 (all from BD Biosciences Pharmingen, San Jose, Calif.). Initially a blast gate was applied for forward scatter vs. side scatter, then sequential gates for CD45 vs. side scatter, CD34+ and CD38^low or neg, then CD123+ cells to yield the LSCs. The CD38low population was defined by CD38 above the isotype control and below that of mature precursors. Flow cytometry data analysis was performed using FlowJo software (Tree Star, Inc. Ashland, Oreg.).
(§1) After overnight incubation on matrix protein coated 384 well plates, drugs were added to each well using a CyBio Well Vario liquid handler (Amalytik Jena). The cell populations were analyzed for survival after a 72-hour exposure to 8 customized drug concentrations (within the range of 5 pM to 100 microM) of each drug spanning 4 logs. Post exposure viability was measured using CellTiter Glo luminescent reagent (Promega, Madison, Wis.) per manufacturer protocol, then the plates were analyzed with the Envision Multi-label plate reader (Perkin Elmer, Waltham, Mass.). XLFit software (IDBS, Guildford, Surrey, United Kingdom) was used to analyze the data and generate dose response curves based on standard 4-parameter logistic fit. For each plate, data were normalized to DMSO 100% viability and blank controls.
(§2) Area under the curve (AUC) was calculated for each dose response curve. For the 4 patient samples, two-sample two-tailed t-tests were used for group comparisons of AUC values to determine drug specificity and efficacy.
(§3) Drug specificity was defined by group comparisons between AUCs for each drug and cell type across patient samples. […] Group comparisons for categorical variable were completed using Fisher's exact test.

Assay [2] concerns AML blasts vs. leukemia stem cells (LSCs). Nature of the assay: Drug specificity: group comparison of AUCs, blasts vs. LSCs across patient samples. It is filed as cell-based, human. The note with it: aggregate viability data of patient samples; pairwise p-value<0.1. On the procedure: as §1, §2, §3

With `CNC(=O)c1cc(Oc2ccc(NC(=O)Nc3ccc(Cl)c(C(F)(F)F)c3)cc2)ccn1` [Sorafenib], in assay [1], the “Effectiveness vs. LSCs (AUCstem mean < mitomycin C AUCblast mean, p<0.1)” value is reported as “effectively killed; also recorded: effective” and the “AUC Stem Mean” value turned out to be 0.0045. In assay [2], the “Drug specificity (blast specific: AUCstem mean>AUCblast mean; LSC specific: AUCstem mean<AUCblast mean)” value is given as “LSC specific; also recorded: LSC-specific”.
As to `COCCn1c2c([n+](Cc3cnccn3)c1C)C(=O)c1ccccc1C2=O` [YM-155], the “LSC drug response in dose response curves” value (“LSC drug response” for short) in assay [1] (patient sample on the left) was “sensitive”. In assay [1], the “Effectiveness vs. LSCs (AUCstem mean < mitomycin C AUCblast mean, p<0.1)” value is listed as “effective” and the “AUC Stem Mean” value is 0.00089.
`Cc1csc(-c2nnc(Nc3ccc(Oc4ncccc4-c4ccnc(N)n4)cc3)c3ccccc23)c1` [AMG-900]: the “LSC drug response” value in assay [1] (patient sample on the right) is on record as “sensitive”.
For `CCN(CC)CCNC(=O)c1c(C)[nH]c(/C=C2\C(=O)Nc3ccc(F)cc32)c1C` [Sunitinib], in assay [1], the “AUC Stem Mean” value is given as 0.00039.
On to `CC1(COc2ccc3c(c2)ncn3-c2ccc3cccc(N4CCC(N)CC4)c3n2)COC1` [Crenolanib], for which, in assay [1], the “AUC Stem Mean” value is 0.0054.
For the compound `Nc1ncn([C@@H]2O[C@H](CO)[C@@H](O)[C@H]2O)c(=O)n1` [Azacitidine], in assay [1], the “Effectiveness vs. LSCs (AUCstem mean < mitomycin C AUCblast mean, p<0.1)” value was “did not result in appreciable cytotoxicity”. In addition, the “Drug specificity (blast specific: AUCstem mean>AUCblast mean; LSC specific: AUCstem mean<AUCblast mean)” value in assay [2] is listed as “LSC specific; also recorded: LSC-specific”.
As for `CC(C)C[C@H](NC(=O)[C@H](Cc1ccccc1)NC(=O)c1cnccn1)B(O)O` [bortezomib], the “Effectiveness vs. LSCs (AUCstem mean < mitomycin C AUCblast mean, p<0.1)” value in assay [1] is recorded as “ineffective”.
Regarding `CN1CCC(CNc2ccc3ncc(-c4cccc(OC(F)(F)F)c4)n3n2)CC1` [SGI-1776], the “AUC Stem Mean” value in assay [1] turned out to be 0.00076.
Take `Nc1ccn([C@@H]2O[C@H](CO)[C@@H](O)C2(F)F)c(=O)n1` [gemcitabine]: in assay [1] (patient sample on the left), the “LSC drug response” value is listed as “sensitive”.
With `Nc1ccccc1NC(=O)c1ccc(CNc2nccc(-c3cccnc3)n2)cc1` [Mocetinostat], in assay [1], the “Effectiveness vs. LSCs (AUCstem mean < mitomycin C AUCblast mean, p<0.1)” value was “LSC effective” and the “AUC Stem Mean” value came out at 0.0029.
Take `Cc1ccc([N+](=O)[O-])cc1S(=O)(=O)N(C)/N=C/c1cnc2ccc(Br)cn12` [PIK-75]: in assay [1], the “Effectiveness vs. LSCs (AUCstem mean < mitomycin C AUCblast mean, p<0.1)” value was “effective” and the “AUC Stem Mean” value was 0.0041.
Consider `C/C=C1\NC(=O)[C@H]2CSSCC/C=C/[C@H](CC(=O)N[C@H](C(C)C)C(=O)N2)OC(=O)[C@H](C(C)C)NC1=O` [Romidepsin], for which the “AUC Stem Mean” value in assay [1] is recorded as 0.00041.
On the same count and under the same terms, the same measure for `CCc1cnn2c(NCc3ccc[n+]([O-])c3)cc(N3CCCC[C@H]3CCO)nc12` [Dinaciclib]: 0.048; for `CC(C)C[C@@H](C=O)NC(=O)[C@H](CC(C)C)NC(=O)[C@H](CC(C)C)NC(=O)OCc1ccccc1` [MG-132] (Cbz-Leu-Leu-Leu-aldehyde): 0.0039.
On to `Cc1ccc(C(=O)Nc2ccc(CN3CCN(C)CC3)c(C(F)(F)F)c2)cc1C#Cc1cnc2cccnn12` [Ponatinib], for which the “AUC Stem Mean” value in assay [1] is on record as 0.00085.
